What all share (assay type): in vivo
For assay [1], the system named is Brassica kaber. The experiment in a line: Experiment 4: glasshouse, pre-emergence, fresh weight after 27 days, % inhibition of growth. The following applies: for % inhibition of growth: Compound 99 0 g/ha. The procedure:
(§1) Glasshouse experiments showing the biological interaction between atrazine and Compound 99 on weed species when applied pre-emergence. […] After 27 days the fresh weight of vegetation in each pot was determined. […] E = […]00005:character} where E, X and Y are percentage inhibition of growth. In addition the ED90 values (the application rate giving 90% inhibition of growth) were calculated from the results for Compound 99 alone and with increasing rates of atrazine. The ED90 values were then used to plot an isobole for each species according to the method of […] op cit. The results of percentage inhibition of growth, the ED values calculated from them and the calculated expected values are given in Table 8.

Assay [2] relates to Sida spinosa. The description is as above. The settings on record: for % inhibition of growth: Compound 99 0 g/ha. On the procedure:
as §1

For assay [3], the system named is Digitaria horizontalis (DIGHO). The experiment in a line: Experiment 1: field experiment, post-emergence spray, % control 29 days after application. The settings on record: Atrazine 1500g/ha. The procedure: Duplicate 12m² plots were sprayed post-emergence with 250g or 500g/ha Compound 1 (in a composition according to Example 1 as described hereinafter) or 1500g/ha atrazine (in a commercial aqueous suspension concentrate formulation containing 500g/l w/v atrazine or a combination (as a tank mix) of the two herbicides in a volume of 300 litres/ha. The following control figures were recorded on the grass weeds Brachiaria plantaginea (BRAPL), Digitaria horizontalis (DIGHO) and Eleusine indica (ELEIN) 29 days after application.

1 compound from patent EP0354047A2, “Herbicidal method using atrazine” (MAY & BAKER LIMITED, priority 1988, dated 1990) can be followed below.

Molecules are shown by their SMILES.

What is called % inhibition of growth is the percentage by which the read-out fell short of the control. For the compound `CCNc1nc(Cl)nc(NC(C)C)n1` [Atrazine, 2-chloro-4-ethylamino-6-isopropylamino-1,3,5-triazine], the ED₉₀ entry is “ED₉₀(g/ha) 157.7” in assay [1] (Atrazine alone) and “ED₉₀(g/ha) 478.75” in assay [2] (Atrazine alone). Further, the “% inhibition of growth” value in assay [1] (Atrazine 16 g/ha) is recorded as 0%; in assay [1] (Atrazine 31 g/ha), 0%; in assay [1] (Atrazine 63 g/ha), 34%; in assay [1] (Atrazine 125 g/ha) it was 70%; in assay [1] (Atrazine 250 g/ha) it was 100%; in assay [1] (Atrazine 500 g/ha), 100%. For the same compound, the “% inhibition of growth” value is 10% in assay [2] (Atrazine 16 g/ha); 2% in assay [2] (Atrazine 31 g/ha); 15% in assay [2] (Atrazine 63 g/ha); 23% in assay [2] (Atrazine 125 g/ha); 37% in assay [2] (Atrazine 250 g/ha); 95% in assay [2] (Atrazine 500 g/ha). For the same compound, in assay [3], the “% control observed” value stood at 0%.
